These results are taken from PMC12838644, “Dihydrotanshinone as a Natural Product-Based CYP17A1 Lyase Inhibitor for Hyperandrogenic Disorders” (Biomolecules, 2026).

For one test, the system named is NCI-H295R cells. The test is described as follows: alamarBlue cytotoxicity assay, NCI-H295R. Conditions: Homo sapiens, read-out: NCI-H295R (IC50). Type of test: cell-based. The procedure: (§1) RWPE-1 cells (ATCC: CRL-36O7) were cultured in keratinocyte serum-free media (K-SFM) supplemented with 0.05 mg/mL bovine pituitary extract and 5 ng/mL epidermal growth factor, and 1% penicillin (100 U/mL; Thermo Fisher Scientific, Waltham, MA, USA), and streptomycin (100 μg/mL; GIBCO). […] Passage numbers remained below 30 as per standard procedures. All cell lines were validated and characterized before use to ensure their authenticity and reliability. Routine mycoplasma testing was conducted to confirm that the cells were free from contamination. Additionally, key functional and morphological characteristics were assessed to verify their alignment with previously reported profiles.
(§2) The alamarBlue® assay (Thermo Fisher Scientific, Waltham, MA USA) was conducted as previously described. RWPE-1 cells, HEK-293 cells, and NCI-H295R cells were plated in 96-well plates at 10,000 cells per well and incubated overnight at 37 °C with 5% CO2. […] Cells were incubated for an additional 24 h. Cell viability was measured using the alamarBlue® assay. Post-incubation, 0.05 mg/mL alamarBlue® solution in phosphate-buffered saline (PBS) was added to each well. The plates were incubated in the dark at 37 °C with 5% CO2 for 4 h, and fluorescence was measured at an excitation wavelength of 540 nm and an emission wavelength of 590 nm. Cell viability was calculated relative to the control sample treated with DMSO. All experiments were conducted in triplicate.

A further test concerns HEK-293T cells. The test is described as follows: alamarBlue cytotoxicity assay, HEK-293T. Type of test: cell-based. The note with it: Homo sapiens, read-out: HEK-293T (IC50). The procedure:
as §1, §2
A general note: The colour change of resazurin is a common sign of viable cells or microbes.

The target of test [1] is T1, CYP21A2 (Homo sapiens, UniProt P08686).
T1 construct: expressed in transfected cells; host or cells: HEK293 / HEK-293T
T1 sequence (P08686 1-495): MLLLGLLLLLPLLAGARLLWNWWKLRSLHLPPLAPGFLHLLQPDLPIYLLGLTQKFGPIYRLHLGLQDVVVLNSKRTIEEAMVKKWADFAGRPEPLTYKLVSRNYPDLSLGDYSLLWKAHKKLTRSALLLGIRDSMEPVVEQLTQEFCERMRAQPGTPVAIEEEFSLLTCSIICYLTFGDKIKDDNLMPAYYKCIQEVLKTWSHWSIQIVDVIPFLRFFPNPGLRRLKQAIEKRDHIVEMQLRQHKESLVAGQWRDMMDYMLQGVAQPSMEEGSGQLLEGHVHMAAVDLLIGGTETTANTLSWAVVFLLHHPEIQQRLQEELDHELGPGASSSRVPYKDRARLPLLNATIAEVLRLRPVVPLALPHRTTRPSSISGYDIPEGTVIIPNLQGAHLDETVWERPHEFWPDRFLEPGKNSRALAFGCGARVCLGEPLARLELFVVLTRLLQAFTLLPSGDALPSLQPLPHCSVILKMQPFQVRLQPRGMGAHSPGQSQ
The test is described as follows: CYP21A2 activity assay in transiently transfected HEK-293T cells. Conditions: for inhibition at 10 µM: read-out: % Inhibition CYP21A2. The test is classed as cell-based. The procedure: Transient transfections were performed using the CYP21A2 WT vector as described previously. HEK293 cells were seeded in six-well plates (3 × 10^5 cells/well). After 24 h, the growth medium was replaced, and cells were transfected using Lipofectamine 2000 (Thermo Fisher Scientific, Bedford, MA, USA) with 12.5 µg of plasmid (plasmid concentration: 1068 µg/mL). Twenty-four hours after transfection, transfected cells were replated in 24-well plates (1.5 × 10^5 cells/well) to ensure homogeneity of the cell population across the wells. Six hours after transfection, 2 mL of fresh medium was replaced, and the cells were cultured for 48 h. Cell growth was examined. […] DMSO was added to the negative control, and 10 µM abiraterone was added to the positive control, and the cells were incubated for 4 h. Functional assays were initiated by adding 1 µM unlabeled progesterone (using 10,000 cpm of [^14C]-progesterone as a tracer). After incubation at 37 °C for 1 h, the culture medium and cells were harvested. Steroids were extracted from the culture medium with ethyl acetate and isooctane (1:1 volume ratio), dried, and dissolved in dichloromethane. Steroids were separated by thin-layer chromatography (TLC), placed on a phosphor screen, and visualized using a Typhoon PhosphorImager FLA-7000 (GE Healthcare Bio-Sciences AB, Uppsala, Sweden). Image intensity was measured and quantified using ImageQuant TL v8 (Cytiva, Marlborough, MA, USA). The CYP21A2 enzyme activity was expressed as relative steroid conversion. Steroids were quantified as a percentage of radioactivity incorporated into […] to the total radioactivity measured in the whole sample and compared between the WT and variants. Cells were collected with trypsin and washed with 1× PBS to quantify the amount of protein. Results were analyzed from three technical replicates. To ensure a similar amount of CYP21A2 in each reaction, a Western blot analysis was performed to normalize the enzyme activity with the relative CYP21A2 expression.

Test [2] has as its system CYP21A2. The test is described as follows: Western blot of CYP21A2 protein expression in treated HEK-293T cells. The test is classed as cell-based, human. The note with it: normalized to β-actin, 4 h treatment, DMSO control 1.07. The procedure: CYP21A2 expression was determined from total protein extracts. Cells were incubated with the previously described lysis buffer for 1 h and centrifuged at 10,000× g for 10 min at 4 °C [54]. The supernatant was collected, and total protein was determined using the Pierce Coomassie Plus (Bradford) assay kit (Thermo Fisher Scientific, Hanover Park, IL, USA). 50 μg of total protein was loaded onto an SDS-PAGE gel (GenScript, Piscataway, NJ, USA) and then transferred to a PVDF membrane as previously described. Two primary antibodies were used: a mouse DKY-Tag monoclonal antibody (GenScript, Catalog No. A00187) at a dilution of 1:1000 and a mouse anti-β-actin monoclonal antibody (Sigma Aldrich, St. Louis, MO, USA, Catalog No. SAB3500350) at a dilution of 1:1500. The secondary antibody, IRDye 800CW-conjugated donkey anti-mouse antibody (LI-COR, Lincoln, NE, USA, Catalog No. 926-32212), was used at a dilution of 1:15,000. Fluorescence signals were detected using an Odyssey SA infrared imaging system (LI-COR Bioscience Inc., Lincoln, NE, USA).
Background: Immunoblotting shows a protein as a band on a membrane.

Setting [3] is: cytotoxicity, alamarBlue, 24 h incubation, mean ± SD, three experiments.
Setting [4] is: 10 µM (SM extract 10 µg/mL), transfected HEK-293T cells, calculated as 100% − % residual activity.

Like-named read-outs stand apart in the source and are kept apart here.

A word on the IC50: it is the concentration that inhibits the measured activity by half. The term inhibition denotes the drop in the measured response relative to a control, in per cent. Take `Cc1coc2c1C(=O)C(=O)c1c-2ccc2c1CCCC2(C)C` [TAII, tanshinone IIA]: in the test with NCI-H295R cells (setting [3]), the 50% inhibitory concentration (IC50) is 1200 ± 3440 nM. In addition, the IC50 with HEK-293T cells (setting [3]) was 2260 ± 1920 nM. At CYP21A2 [1] (setting [4]), the “% Inhibition CYP21A2” value is “no meaningful inhibition” and the inhibition at 10 µM is less than 1%. In addition, the “CYP21A2 protein levels, normalized densitometry values” in the test with CYP21A2 [2] is on record as 1.30.

`Cc1coc2c1C(=O)C(=O)c1c-2ccc2c(C)cccc12` [TAI, tanshinone I]: the IC50 in the test with NCI-H295R cells (setting [3]) came out at 1130 ± 630 nM. The IC50 with HEK-293T cells (setting [3]) is 1080 ± 260 nM. In addition, on CYP21A2 [1] (setting [4]), the “% Inhibition CYP21A2” value is “no meaningful inhibition” and the inhibition at 10 µM is less than 1%.

As to `Cc1cccc2c3c(ccc12)C1=C(C(=O)C3=O)[C@@H](C)CO1` [DT, dihydrotanshinone I], the IC50 in the test with NCI-H295R cells (24 h) is 950 ± 480 nM; in the test on HEK-293T cells (24 h), 1310 ± 470 nM. In addition, the “Residual CYP21A2 activity” value on CYP21A2 [1] (% of DMSO control, 10 µM, transfected HEK-293T cells) was 85%. Also, the inhibition at 10 µM on CYP21A2 [1] (HEK-293T) was 14.9%. Moreover, in the test on CYP21A2 [2], the “CYP21A2 protein levels, normalized densitometry values” came to 1.15.
